Test results from patent US20230157952A1, “METHOD FOR IMPROVING THE STABILITY OF A PHARMACEUTICAL COMPOSITION COMPRISING A HIGH PENETRATION DRUG, AND THE PHARMACEUTICAL COMPOSITION OBTAINED THEREFROM” (Techfields Inc., priority 2020, published 2023).

Assay: Effect of temperature (and pH) on the stability of the solution (purity)
Type: physicochemical
Settings: 7% solution in water

SMILES: CCN(CC)CCOC(=O)c1cc(-c2ccc(F)cc2F)ccc1OC(C)=O.Cl
- Purity(%) at day 0 (pH 1.0, day 0): 99.1%
- Purity(%) at day 14 (5° C.) (pH 1.0, day 14, 5° C.): 90.2%
- Purity(%) at day 14 (25° C.) (pH 1.0, day 14, 25° C.): 61.2%
- Purity(%) at day 14 (40° C.) (pH 1.0, day 14, 40° C.): 0%
- Purity (%) at day 14 (60° C.) (pH 1.0, day 14, 60° C.): 0%
- Purity(%) at day 0 (pH 2.0, day 0): 99.1%
- Purity(%) at day 14 (5° C.) (pH 2.0, day 14, 5° C.): 95.8%
- Purity(%) at day 14 (25° C.) (pH 2.0, day 14, 25° C.): 82.7%
- Purity(%) at day 14 (40° C.) (pH 2.0, day 14, 40° C.): 0%
- Purity (%) at day 14 (60° C.) (pH 2.0, day 14, 60° C.): 0%
- Purity(%) at day 0 (pH 3.0, day 0): 99.1%
- Purity(%) at day 14 (5° C.) (pH 3.0, day 14, 5° C.): 97.5%
- Purity(%) at day 14 (25° C.) (pH 3.0, day 14, 25° C.): 87.7%
- Purity(%) at day 14 (40° C.) (pH 3.0, day 14, 40° C.): 2.3%
- Purity (%) at day 14 (60° C.) (pH 3.0, day 14, 60° C.): 0%
- Purity(%) at day 0 (pH 3.7, day 0): 99.1%
- Purity(%) at day 14 (5° C.) (pH 3.7, day 14, 5° C.): 98.2%
- Purity(%) at day 14 (25° C.) (pH 3.7, day 14, 25° C.): 95.5%
- Purity(%) at day 14 (40° C.) (pH 3.7, day 14, 40° C.): 14.1%
- Purity (%) at day 14 (60° C.) (pH 3.7, day 14, 60° C.): 0%
- Purity(%) at day 0 (pH 4.0, day 0): 99.1%
- Purity(%) at day 14 (5° C.) (pH 4.0, day 14, 5° C.): 98.4%
- Purity(%) at day 14 (25° C.) (pH 4.0, day 14, 25° C.): 95.9%
- Purity(%) at day 14 (40° C.) (pH 4.0, day 14, 40° C.): 14.3%
- Purity (%) at day 14 (60° C.) (pH 4.0, day 14, 60° C.): 0%
- Purity(%) at day 0 (pH 4.3, day 0): 99.1%
- Purity(%) at day 14 (5° C.) (pH 4.3, day 14, 5° C.): 98.4%
- Purity(%) at day 14 (25° C.) (pH 4.3, day 14, 25° C.): 95.8%
- Purity(%) at day 14 (40° C.) (pH 4.3, day 14, 40° C.): 12.8%
- Purity (%) at day 14 (60° C.) (pH 4.3, day 14, 60° C.): 0%
- Purity(%) at day 0 (pH 4.6, day 0): 99.1%
- Purity(%) at day 14 (5° C.) (pH 4.6, day 14, 5° C.): 98.3%
- Purity(%) at day 14 (25° C.) (pH 4.6, day 14, 25° C.): 95.6%
- Purity(%) at day 14 (40° C.) (pH 4.6, day 14, 40° C.): 3.4%
- Purity (%) at day 14 (60° C.) (pH 4.6, day 14, 60° C.): 0%
- Purity(%) at day 0 (pH 5.0, day 0): 99.1%
- Purity(%) at day 14 (5° C.) (pH 5.0, day 14, 5° C.): 97.0%
- Purity(%) at day 14 (25° C.) (pH 5.0, day 14, 25° C.): 91.0%
- Purity(%) at day 14 (40° C.) (pH 5.0, day 14, 40° C.): 0.9%
- Purity (%) at day 14 (60° C.) (pH 5.0, day 14, 60° C.): 0%
- Purity(%) at day 0 (pH 6.0, day 0): 99.1%
- Purity(%) at day 14 (5° C.) (pH 6.0, day 14, 5° C.): 91.6%
- Purity(%) at day 14 (25° C.) (pH 6.0, day 14, 25° C.): 84.1%
- Purity(%) at day 14 (40° C.) (pH 6.0, day 14, 40° C.): 0%
- Purity (%) at day 14 (60° C.) (pH 6.0, day 14, 60° C.): 0%
- Purity(%) at day 0 (pH 7.0, day 0): 99.1%
- Purity(%) at day 14 (5° C.) (pH 7.0, day 14, 5° C.): 87.3%
- Purity(%) at day 14 (25° C.) (pH 7.0, day 14, 25° C.): 60.3%
- Purity(%) at day 14 (40° C.) (pH 7.0, day 14, 40° C.): 0%
- Purity (%) at day 14 (60° C.) (pH 7.0, day 14, 60° C.): 0%
- Purity(%) at day 0 (pH 8.0, day 0): 99.1%
- Purity(%) at day 14 (5° C.) (pH 8.0, day 14, 5° C.): 57.3%
- Purity(%) at day 14 (25° C.) (pH 8.0, day 14, 25° C.): 21.2%
- Purity(%) at day 14 (40° C.) (pH 8.0, day 14, 40° C.): 0%
- Purity (%) at day 14 (60° C.) (pH 8.0, day 14, 60° C.): 0%

SMILES: CCN(CC)CCOC(=O)Cc1ccc(C(=O)c2ccc(C)cc2)n1C.Cl
- Purity(%) at day 0 (pH 1.0, day 0): 97.4 ± 0.4%
- Purity(%) at day 21 (5° C.) (pH 1.0, day 21, 5° C.): 90.3 ± 0.3%
- Purity(%) at day 21 (25° C.) (pH 1.0, day 21, 25° C.): 65.5 ± 0.3%
- Purity(%) at day 21 (40° C.) (pH 1.0, day 21, 40° C.): 9.4 ± 0.3%
- Purity (%) at day 21 (60° C.) (pH 1.0, day 21, 60° C.): 0%
- Purity(%) at day 0 (pH 2.0, day 0): 97.6 ± 0.3%
- Purity(%) at day 21 (5° C.) (pH 2.0, day 21, 5° C.): 93.5 ± 0.3%
- Purity(%) at day 21 (25° C.) (pH 2.0, day 21, 25° C.): 78.1 ± 0.3%
- Purity(%) at day 21 (40° C.) (pH 2.0, day 21, 40° C.): 20.6 ± 0.3%
- Purity (%) at day 21 (60° C.) (pH 2.0, day 21, 60° C.): 0%
- Purity(%) at day 0 (pH 3.0, day 0): 97.8 ± 0.2%
- Purity(%) at day 21 (5° C.) (pH 3.0, day 21, 5° C.): 95.3 ± 0.3%
- Purity(%) at day 21 (25° C.) (pH 3.0, day 21, 25° C.): 91.2 ± 0.2%
- Purity(%) at day 21 (40° C.) (pH 3.0, day 21, 40° C.): 41.7 ± 0.2%
- Purity (%) at day 21 (60° C.) (pH 3.0, day 21, 60° C.): 0%
- Purity(%) at day 0 (pH 3.7, day 0): 97.9 ± 0.2%
- Purity(%) at day 21 (5° C.) (pH 3.7, day 21, 5° C.): 96.4 ± 0.2%
- Purity(%) at day 21 (25° C.) (pH 3.7, day 21, 25° C.): 95.6 ± 0.2%
- Purity(%) at day 21 (40° C.) (pH 3.7, day 21, 40° C.): 56.6 ± 0.2%
- Purity (%) at day 21 (60° C.) (pH 3.7, day 21, 60° C.): 11.5 ± 0.3%
- Purity(%) at day 0 (pH 4.0, day 0): 98.1 ± 0.1%
- Purity(%) at day 21 (5° C.) (pH 4.0, day 21, 5° C.): 96.8 ± 0.1%
- Purity(%) at day 21 (25° C.) (pH 4.0, day 21, 25° C.): 95.7 ± 0.2%
- Purity(%) at day 21 (40° C.) (pH 4.0, day 21, 40° C.): 58.3 ± 0.2%
- Purity (%) at day 21 (60° C.) (pH 4.0, day 21, 60° C.): 23.0 ± 0.3%
- Purity(%) at day 0 (pH 4.3, day 0): 98.1 ± 0.2%
- Purity(%) at day 21 (5° C.) (pH 4.3, day 21, 5° C.): 96.9 ± 0.1%
- Purity(%) at day 21 (25° C.) (pH 4.3, day 21, 25° C.): 95.4 ± 0.1%
- Purity(%) at day 21 (40° C.) (pH 4.3, day 21, 40° C.): 60.1 ± 0.1%
- Purity (%) at day 21 (60° C.) (pH 4.3, day 21, 60° C.): 25.8 ± 0.2%
- Purity(%) at day 0 (pH 4.6, day 0): 97.9 ± 0.1%
- Purity(%) at day 21 (5° C.) (pH 4.6, day 21, 5° C.): 96.3 ± 0.2%
- Purity(%) at day 21 (25° C.) (pH 4.6, day 21, 25° C.): 94.9 ± 0.2%
- Purity(%) at day 21 (40° C.) (pH 4.6, day 21, 40° C.): 55.3 ± 0.2%
- Purity (%) at day 21 (60° C.) (pH 4.6, day 21, 60° C.): 13.5 ± 0.3%
- Purity(%) at day 0 (pH 5.0, day 0): 97.8 ± 0.2%
- Purity(%) at day 21 (5° C.) (pH 5.0, day 21, 5° C.): 96.1 ± 0.2%
- Purity(%) at day 21 (25° C.) (pH 5.0, day 21, 25° C.): 92.1 ± 0.3%
- Purity(%) at day 21 (40° C.) (pH 5.0, day 21, 40° C.): 37.8 ± 0.3%
- Purity (%) at day 21 (60° C.) (pH 5.0, day 21, 60° C.): 1.7 ± 0.3%
- Purity(%) at day 0 (pH 6.0, day 0): 97.6 ± 0.3%
- Purity(%) at day 21 (5° C.) (pH 6.0, day 21, 5° C.): 94.4 ± 0.2%
- Purity(%) at day 21 (25° C.) (pH 6.0, day 21, 25° C.): 79.5 ± 0.3%
- Purity(%) at day 21 (40° C.) (pH 6.0, day 21, 40° C.): 19.5 ± 0.2%
- Purity (%) at day 21 (60° C.) (pH 6.0, day 21, 60° C.): 0%
- Purity(%) at day 0 (pH 7.0, day 0): 97.4 ± 0.3%
- Purity(%) at day 21 (5° C.) (pH 7.0, day 21, 5° C.): 90.0 ± 0.3%
- Purity(%) at day 21 (25° C.) (pH 7.0, day 21, 25° C.): 59.7 ± 0.3%
- Purity(%) at day 21 (40° C.) (pH 7.0, day 21, 40° C.): 5.7 ± 0.3%
- Purity (%) at day 21 (60° C.) (pH 7.0, day 21, 60° C.): 0%
- Purity(%) at day 0 (pH 8.0, day 0): 97.1 ± 0.3%
- Purity(%) at day 21 (5° C.) (pH 8.0, day 21, 5° C.): 78.1 ± 0.3%
- Purity(%) at day 21 (25° C.) (pH 8.0, day 21, 25° C.): 43.6 ± 0.4%
- Purity(%) at day 21 (40° C.) (pH 8.0, day 21, 40° C.): 0%
- Purity (%) at day 21 (60° C.) (pH 8.0, day 21, 60° C.): 0%
